Measured values reported in EP0977560B1 (PAZ Arzneimittel- Entwicklungsgesellschaft mbH, priority 1997, dated 1998).

Key:
[1] = system: Transkriptionsfaktors NF-κB; assay: Electro mobility shift assay (DIG Gel Shift Kit) of NF-κB activation in TPA-stimulated Jurkat cells; type: cell-based; details: Phorbolester (TPA) stimulated Jurkat-Zellen; two-hour preincubation; 100, 10 and 1 ptm (Spur 3-5); Abbildung 1
From the text: Einfluß von R-Ibuprofen-CoA-Thioester auf die Aktivierung des Transkriptionsfaktors NF-κB in Jurkat-Zellen. […] Spur 1 zeigt die unstimulierten, Spur 2 die stimulierten Kontrollzellen.

[2] = system: PGHS-2 (Cyclooxygenase-2); assay: Formation of PGHS-2 in LPS-induced monocytes (method after Brideau et al., human whole blood assay); type: cell-based; details: LPS-induced Monozyten, 24 Std.; R-Ibuprofenoyl-CoA 0.5, 0.25, 0.05 mM; Ibuprofen, razemisch 1.0, 0.1, 0.05 mM; Abbildung 2
From the text: Inkubation von LPS-induzierten Monozyten (24 Std.). […] Methode nach: BRIDEAU, C., KARGMAN, S., LIU, S., DALLOB, A.L., EHRICH, E.W., RODGER, I.W. & CHAN, C.C. […] A human whole blood assay for clinical evaluation of biochemical efficacy of cyclooxygenase inhibitors. Inflamm. Res., 45, 68-74.

**Q.** Which “Aktivierung des Transkriptionsfaktors NF-κB” value [1] does the source give for `CC(C)Cc1ccc([C@@H](C)C(=O)SCCNC(=O)CCNC(=O)[C@H](O)C(C)(C)COP(=O)(O)OP(=O)(O)OC[C@H]2O[C@@H](n3cnc4c(N)ncnc43)[C@H](O)[C@@H]2OP(=O)(O)O)cc1` [R-Ibuprofen-CoA-Thioester] here?
**A.** Its value is “Aktivierungshemmung von NF-κB”.

**Q.** And the “Bildung von PGHS-2 (Cyclooxygenase-2)” value [2]?
**A.** The value was “dosisabhängig zu einer Unterdrückung der Bildung von PGHS-2”.
